Biological target: Signal transducer and activator of transcription 3 (Homo sapiens, UniProt P40763)
Assay: Inhibition of Stat3

Sequence of Signal transducer and activator of transcription 3 (P40763 whole entry): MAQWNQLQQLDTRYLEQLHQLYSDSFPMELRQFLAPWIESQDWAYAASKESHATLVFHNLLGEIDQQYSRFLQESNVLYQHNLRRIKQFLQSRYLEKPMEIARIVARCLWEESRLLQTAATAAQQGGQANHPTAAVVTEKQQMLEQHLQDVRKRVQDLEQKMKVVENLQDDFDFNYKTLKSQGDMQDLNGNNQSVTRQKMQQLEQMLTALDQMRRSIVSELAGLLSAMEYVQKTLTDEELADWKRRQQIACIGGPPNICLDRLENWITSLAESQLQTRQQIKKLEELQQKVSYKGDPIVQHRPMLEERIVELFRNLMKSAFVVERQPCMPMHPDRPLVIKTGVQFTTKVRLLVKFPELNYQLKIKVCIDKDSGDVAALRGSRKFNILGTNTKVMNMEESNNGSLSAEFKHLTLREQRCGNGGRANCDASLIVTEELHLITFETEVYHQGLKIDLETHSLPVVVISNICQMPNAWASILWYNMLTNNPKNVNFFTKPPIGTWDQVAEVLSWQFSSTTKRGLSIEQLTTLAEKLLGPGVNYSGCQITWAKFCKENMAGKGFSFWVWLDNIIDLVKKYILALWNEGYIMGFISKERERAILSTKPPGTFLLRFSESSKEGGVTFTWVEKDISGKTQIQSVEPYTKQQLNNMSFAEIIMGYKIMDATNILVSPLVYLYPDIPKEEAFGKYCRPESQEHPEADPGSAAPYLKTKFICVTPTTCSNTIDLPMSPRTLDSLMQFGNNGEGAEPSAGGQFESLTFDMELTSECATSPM

SMILES	IC50
CC(C)C[C@H](NC(=O)/C=C/c1ccc(OP(=O)(O)O)cc1)C(=O)N1CCC[C@H]1C(=O)N[C@@H](COC(N)=O)C(=O)NCc1ccccc1	379 nM
CC(C)C[C@H](NC(=O)/C=C/c1ccc(OP(=O)(O)O)cc1)C(=O)N1CCC[C@H]1C(=O)N[C@@H](CCC(N)=O)C(=O)NCc1ccccc1	135 nM
CC(C)C[C@H](NC(=O)/C=C/c1ccc(OP(=O)(O)O)cc1)C(=O)N1CCC[C@H]1C(=O)N[C@H](C(=O)NCc1ccccc1)[C@@H](C)OC(N)=O	850 nM

— ChEMBL document CHEMBL1143793, “Solid-phase synthesis of Stat3 inhibitors incorporating O-carbamoylserine and O-carbamoylthreonine as glutamine mimics” (Bioorg Med Chem Lett, 2007)
